Measurements taken from patent publication US11925667B2, “Engineered therapeutic probiotic system and method” (priority 2018, dated 2024).

Tests used:
Assay type in all cases: biochemical
[1] = biological target: Arabidopsis thaliana myrosinase TGG1 (Arabidopsis thaliana, UniProt P37702); experiment: Myrosinase activity assay (glucose release from sinigrin hydrolysis), TGG1
Description: (§1) Screening for improved β-thioglucosidase. The activity and stability of myrosinase, a β-thioglucosidase that hydrolyzes glucosinolate to sulforaphane, varies at differing pH and temperature; in a preferred embodiment the selected enzyme needs to function under physiological colorectal conditions. The healthy colon pH averages 6.6, while it is 7.0 and 6.7 in patients with adenoma and carcinoma, respectively. In addition, the temperature of the human intestinal tract ranges from 36° C. to 40° C. depending on the individual's metabolic state. In the illustrative example five plant-derived myrosinase orthologues with minimal glycosylation sites and the absence of the co-factor-binding sites using the BLAST search and the Enzyme Function Initiative-Enzyme Similarity Tool (EFI-EST), are compared to the well-characterized myrosinases from Brevicoryne brassicae (BMY1) and Arabidopsis thaliana (TGG1) (FIG. 2a and FIG. 7).
(§2) Gene cloning, protein expression and purification. Myrosinase genes are optimized for E. coli expression and cloned into the pET28b expression vector. The plasmids are transformed into E. coli BL21 (DE3) cultured in lysogeny broth (LB) (BD, Le Pont de Claix, France) at 37° C., 225 rpm to OD600 0.6 followed by 0.5 mM isopropyl β-D-1-thiogalactopyranoside (IPTG) induction at 16° C., 180 rpm for 16 hours. Cells are harvested, resuspended in lysis buffer (50 mM Tris-Cl, 300 mM NaCl, 10% glycerol, 1 mM dithiothreitol [DTT], pH 8.0) and lysed using Emulsiflex C-3 (Avestin). Expressed myrosinases are purified by IMAC Ni-NTA purification followed by Hi-Load Superdex 200 size exclusion column chromatography (GE, Uppsala, Sweden). The purified protein is concentrated and stored at −80° C. Pilot scale protein purification and enzymatic assay is conducted.
(§3) Myrosinase screening assay. The enzymatic reaction is measured for the release of glucose resulting from sinigrin hydrolysis. The reaction is conducted in sodium phosphate-buffered solution supplied in the Amplex® Red Glucose/Glucose Oxidase Assay Kit (Thermo Fisher Scientific, Geel, Belgium). The reaction buffer is prepared at different pH values (6.0, 6.5, 7.4 and 8.0) and at different reaction temperatures (34° C., 37° C., and 40° C.). The reaction is prepared using 0.1 μM purified myrosinase added to 1× Amplex® Red Glucose Assay reaction mixture and was kick-started with the corresponding concentration of sinigrin. The reaction can be measured at 560 nm absorbance and fluorescence (λex=540 nm, λem=590 nm) using a Synergy H1 Multi-Mode microtiter plate reader (BioTek®, Winooski, USA). The reaction initial velocity (VO) is determined and fitted into a Michaelis-Menten curve. Vmax and KM are determined by fitting into the Michaelis-Menten equation (Eq. 1) using GraphPad Prism Software. ^v=Vmax*[Sinigrin]/(KM+[Sinigrin]) (Eq.1)
(§4) Table S1|Myrosinase activity assay screening under various pH and temperature conditions (n=3 independent experiments, each measurement performed in triplicates; mean[…].).

[2] = tested on: myrosinase Q5 (plant-derived myrosinase orthologue); experiment: Myrosinase activity assay (glucose release from sinigrin hydrolysis), Q5
Description: as §1, §2, §3, §4

[3] = biological target: T1, Armoracia rusticana myrosinase I1, SEQ ID NO: 6 (Armoracia rusticana, UniProt I1TIJ2); experiment: Myrosinase activity assay (glucose release from sinigrin hydrolysis), I1
T1 construct: elsewhere used as YebF-I1 fusion
T1 sequence (I1TIJ2 23-510): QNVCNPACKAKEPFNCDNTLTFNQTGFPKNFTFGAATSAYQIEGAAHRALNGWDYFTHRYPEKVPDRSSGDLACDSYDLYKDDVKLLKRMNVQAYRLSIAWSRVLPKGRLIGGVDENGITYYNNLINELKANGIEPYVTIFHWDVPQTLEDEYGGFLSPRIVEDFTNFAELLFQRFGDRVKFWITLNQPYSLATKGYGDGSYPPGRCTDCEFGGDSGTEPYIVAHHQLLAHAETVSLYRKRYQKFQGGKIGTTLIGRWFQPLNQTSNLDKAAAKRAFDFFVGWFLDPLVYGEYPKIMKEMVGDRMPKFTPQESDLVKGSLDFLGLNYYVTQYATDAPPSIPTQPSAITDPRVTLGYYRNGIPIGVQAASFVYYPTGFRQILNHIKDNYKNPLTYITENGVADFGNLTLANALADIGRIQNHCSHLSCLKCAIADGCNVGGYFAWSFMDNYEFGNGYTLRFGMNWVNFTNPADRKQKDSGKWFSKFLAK
From the text: (§5) In a preferred embodiment, the myrosinases derived from Armoracia rusticana (I1) and Brassica oleacea (A6) have a better stability and catalytic efficiency in various temperatures and pH values when compared with those derived from BMY1 and TGG1 (Table 1). In a preferred illustrative embodiment I1 myrosinase is selected owing to its Km value and improved kcat at the colorectal ambient temperature and pH (FIG. 2c, 2d and Table 1). By comparing the modeled-I1 myrosinase protein structure against that of the BMY1 myrosinase, the critical side chain residues involved in glucose-ring recognition and the glutamic acid that served as a nucleophile during catalysis are conserved. According to the claimed invention the improved catalytic efficiency of the I1 myrosinase is correlated to its pI value (pI=7.90) and the overall positively charged surface (FIG. 8) that contributes to better structural stability.
as §2, §3, §4

[4] = tested on: myrosinase Q9 (plant-derived myrosinase orthologue); experiment: Myrosinase activity assay (glucose release from sinigrin hydrolysis), Q9
Description: as §1, §2, §3, §4

[5] = tested on: myrosinase C9 (plant-derived myrosinase orthologue); experiment: Myrosinase activity assay (glucose release from sinigrin hydrolysis), C9
Description: as §1, §2, §3, §4

[6] = biological target: T2, Brevicoryne brassicae myrosinase BMY1 (Brevicoryne brassicae, UniProt Q95X01); experiment: Myrosinase activity assay (glucose release from sinigrin hydrolysis), BMY1
T2 sequence (Q95X01 1-464): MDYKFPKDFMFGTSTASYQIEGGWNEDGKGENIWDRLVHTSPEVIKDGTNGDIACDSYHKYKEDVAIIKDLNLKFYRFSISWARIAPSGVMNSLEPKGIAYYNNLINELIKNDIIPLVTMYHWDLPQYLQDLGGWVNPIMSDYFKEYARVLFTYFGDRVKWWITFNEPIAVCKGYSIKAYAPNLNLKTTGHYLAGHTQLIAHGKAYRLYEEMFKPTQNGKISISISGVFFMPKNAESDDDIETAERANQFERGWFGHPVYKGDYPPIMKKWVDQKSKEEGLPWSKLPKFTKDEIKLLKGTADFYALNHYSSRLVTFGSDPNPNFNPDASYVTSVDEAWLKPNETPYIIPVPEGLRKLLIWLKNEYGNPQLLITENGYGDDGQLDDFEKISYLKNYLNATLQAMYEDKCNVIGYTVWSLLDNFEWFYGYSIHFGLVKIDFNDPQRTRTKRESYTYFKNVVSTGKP
Description: as §1, §2, §3, §4

[7] = tested on: Brassica oleacea myrosinase A6; experiment: Myrosinase activity assay (glucose release from sinigrin hydrolysis), A6
From the text: as §5, §2, §3, §4

Arabidopsis thaliana myrosinase TGG1, sequence (P37702 20-541): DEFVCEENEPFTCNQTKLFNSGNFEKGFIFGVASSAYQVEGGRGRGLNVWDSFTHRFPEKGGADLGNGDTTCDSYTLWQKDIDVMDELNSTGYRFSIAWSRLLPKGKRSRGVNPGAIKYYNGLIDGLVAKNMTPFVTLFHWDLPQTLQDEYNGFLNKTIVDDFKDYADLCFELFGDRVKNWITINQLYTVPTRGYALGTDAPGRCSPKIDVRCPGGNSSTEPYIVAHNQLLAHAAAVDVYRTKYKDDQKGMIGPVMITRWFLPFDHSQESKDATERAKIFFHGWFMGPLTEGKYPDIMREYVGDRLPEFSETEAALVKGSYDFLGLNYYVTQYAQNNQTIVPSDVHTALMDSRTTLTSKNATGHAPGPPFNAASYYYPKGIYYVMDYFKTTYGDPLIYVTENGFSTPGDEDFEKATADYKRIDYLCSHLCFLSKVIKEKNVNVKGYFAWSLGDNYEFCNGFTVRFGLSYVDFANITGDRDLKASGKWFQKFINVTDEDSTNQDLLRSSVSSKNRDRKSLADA

C=CC/C(=N/OS(=O)(=O)O)S[C@@H]1O[C@H](CO)[C@@H](O)[C@H](O)[C@H]1O [sinigrin] was tested, and the kcar ([1]; pH 6.0, 37° C.) was 10.2 ± 0.6 s⁻¹, the kcar ([1]; pH 6.5, 37° C.) was 8.6 ± 1.6 s⁻¹ and the kcar ([1]; pH 7.4, 34° C.) was 6.9 ± 1.6 s⁻¹. It also gave a kcar ([1]; pH 7.4, 37° C.) of 6.4 ± 1.1 s⁻¹, a kcar ([1]; pH 7.4, 40° C.) of 6.5 ± 0.2 s⁻¹ and a kcar ([1]; pH 8.0, 37° C.) of 4.3 ± 0.7 s⁻¹. For the same compound, the Km ([2]; pH 6.0, 37° C.) was 184 ± 15 µM, the kcar ([2]; pH 6.0, 37° C.) was 4.6 ± 1.1 s⁻¹ and the Km ([2]; pH 6.5, 37° C.) was 127 ± 21 µM. It also gave a kcar ([2]; pH 6.5, 37° C.) of 4.9 ± 1.2 s⁻¹, a Km ([2]; pH 7.4, 34° C.) of 225 ± 13 µM and a kcar ([2]; pH 7.4, 34° C.) of 2.9 ± 1.4 s⁻¹. It also gave a Km ([2]; pH 7.4, 37° C.) of 25 ± 7 µM, a kcar ([2]; pH 7.4, 37° C.) of 2.1 ± 1.6 s⁻¹ and a Km ([2]; pH 7.4, 40° C.) of 49 ± 14 µM. The kcar ([2]; pH 7.4, 40° C.) was 3.7 ± 1.6 s⁻¹, the Km ([2]; pH 8.0, 37° C.) was 154 ± 24 µM and the kcar ([2]; pH 8.0, 37° C.) was 2.8 ± 1.1 s⁻¹. For the same compound, the kcar ([3]; pH 6.0, 37° C.) was 6.6 ± 0.7 s⁻¹, the kcar ([3]; pH 6.5, 37° C.) was 7.9 ± 1.1 s⁻¹ and the kcar ([3]; pH 7.4, 34° C.) was 3.4 ± 0.7 s⁻¹. For the same compound, the kcar ([3]; pH 7.4, 37° C.) was 15.0 ± 1.5 s⁻¹, the kcar ([3]; pH 7.4, 40° C.) was 15.2 ± 1.5 s⁻¹ and the kcar ([3]; pH 8.0, 37° C.) was 6.6 ± 3.1 s⁻¹. For the same compound, the Km ([4]; pH 6.0, 37° C.) was 111 ± 3 µM, the kcar ([4]; pH 6.0, 37° C.) was 3.0 ± 0.6 s⁻¹ and the Km ([4]; pH 6.5, 37° C.) was 291 ± 5 µM. For the same compound, the kcar ([4]; pH 6.5, 37° C.) was 7.8 ± 0.8 s⁻¹, the kcar ([4]; pH 7.4, 34° C.) was 13.0 ± 3.5 s⁻¹ and the kcar ([4]; pH 7.4, 37° C.) was 3.8 ± 1.5 s⁻¹. The Km ([4]; pH 7.4, 40° C.) was 893 ± 23 µM, the kcar ([4]; pH 7.4, 40° C.) was 12.3 ± 3.9 s⁻¹ and the Km ([4]; pH 8.0, 37° C.) was 473 ± 6 µM. It also gave a kcar ([4]; pH 8.0, 37° C.) of 4.4 ± 1.0 s⁻¹, a Km ([5]; pH 6.0, 37° C.) of 439 ± 97 µM and a kcar ([5]; pH 6.0, 37° C.) of 5.6 ± 0.8 s⁻¹. For the same compound, the Km ([5]; pH 6.5, 37° C.) was 290 ± 31 µM, the kcar ([5]; pH 6.5, 37° C.) was 9.0 ± 0.9 s⁻¹ and the Km ([5]; pH 7.4, 34° C.) was 384 ± 28 µM. The kcar ([5]; pH 7.4, 34° C.) was 11.2 ± 2.4 s⁻¹, the Km ([5]; pH 7.4, 37° C.) was 38 ± 2 µM and the kcar ([5]; pH 7.4, 37° C.) was 3.4 ± 0.6 s⁻¹. For the same compound, the Km ([5]; pH 7.4, 40° C.) was 352 ± 68 µM, the kcar ([5]; pH 7.4, 40° C.) was 9.0 ± 0.9 s⁻¹ and the Km ([5]; pH 8.0, 37° C.) was 842 ± 80 µM. The kcar ([5]; pH 8.0, 37° C.) was 10.7 ± 1.3 s⁻¹, the kcar ([6]; pH 6.0, 37° C.) was 5.7 ± 0.8 s⁻¹ and the kcar ([6]; pH 6.5, 37° C.) was 11.8 ± 0.4 s⁻¹. The kcar ([6]; pH 7.4, 34° C.) was 6.9 ± 0.4 s⁻¹, the kcar ([6]; pH 7.4, 37° C.) was 6.0 ± 0.7 s⁻¹ and the kcar ([6]; pH 7.4, 40° C.) was 9.1 ± 0.8 s⁻¹. The kcar ([6]; pH 8.0, 37° C.) was 5.6 ± 0.6 s⁻¹, the Km ([7]; pH 6.0, 37° C.) was 68 ± 2 µM and the kcar ([7]; pH 6.0, 37° C.) was 6.6 ± 1.3 s⁻¹. The Km ([7]; pH 6.5, 37° C.) was 187 ± 13 µM, the kcar ([7]; pH 6.5, 37° C.) was 15.0 ± 1.5 s⁻¹ and the Km ([7]; pH 7.4, 34° C.) was 47 ± 5 µM. It also gave a kcar ([7]; pH 7.4, 34° C.) of 7.2 ± 1.3 s⁻¹, a Km ([7]; pH 7.4, 37° C.) of 44 ± 4 µM and a kcar ([7]; pH 7.4, 37° C.) of 5.2 ± 0.9 s⁻¹. It also gave a Km ([7]; pH 7.4, 40° C.) of 189 ± 39 µM, a kcar ([7]; pH 7.4, 40° C.) of 9.7 ± 1.3 s⁻¹ and a Km ([7]; pH 8.0, 37° C.) of 142 ± 22 µM. The kcar ([7]; pH 8.0, 37° C.) was 9.3 ± 1.2 s⁻¹.
